The text below walks through data of article PMC8509705, “Liquid-Liquid Chromatography Separation of Guaiane-Type Sesquiterpene Lactones from Ferula penninervis Regel & Schmalh. and Evaluation of Their In Vitro Cytotoxic and Melanin Inhibitory Potential” (International Journal of Molecular Sciences, 2021).

For series [1], the system named is androgen-dependent prostate cancer LNCaP cells. Nature of the series: Neutral red uptake cell viability assay, LNCaP cells. To be noted: Homo sapiens, 48 h; for viability at 50 µg/mL: 50 μg/mL, vs DMSO control; for IC50: neutral red uptake. In kind it is cell-based. The procedure:
(§1) Figure 4 Concentration-response curves showing the effect of Ferula penninervis methanolic root extract against gastrointestinal cancer cells (A), prostate cancer cells (B), skin cancer cells (C) and non-cancer cells (D) and the effect of isolated sesquiterpene lactones against prostate cancer LNCaP cells (E) and prostate epithelial PNT2 cells (F). Cells were seeded in 96-well plates (3 × 10^3/well) and treated with increasing concentrations of extract (12.5–200 μg/mL) or sesquiterpene lactones (3.125–50 μg/mL); after 48 h, the cell viability was evaluated using neutral red uptake assay. Data are expressed as percentage change in viability in comparison to the vehicle (DMSO) treated control group. Each point represents the mean ± S.E.M. of three independent experiments performed in triplicates.
Androgen-dependent prostate cancer (derived from lymph node metastasis) LNCaP (ATCC® CRL-1740), androgen-insensitive prostate cancer (derived from brain metastasis) DU145 (ATCC® HTB-81), androgen-insensitive prostate cancer (derived from bone metastasis) PC3 (ATCC® CRL-1435) and prostate epithelial PNT2 (ECACC® 95012613) cell lines were kindly provided by Dr. Vera Knäuper, School of Dentistry, Cardiff University (Cardiff, UK), whereas human colorectal carcinoma Caco-2 (ATCC® HTB-37) cell line was provided by Dr. Konrad Szychowski (University of Information Technology and Management, Rzeszów, Poland). Human gastric cancer (derived from liver metastasis) N87 (ATCC® CRL-5822), human colorectal cancer HT-29 (ATCC® HTB-38), human malignant melanoma A375 (ATCC CRL-1619), human squamous cell cancer SCC-15 (ATCC® CRL-1623) cell lines, murine melanoma B16F10 (ATCC® CRL-6475) and human skin BJ fibroblast (ATCC® CRL-2522) cell lines were purchased from LGC Standards (Łomianki, Poland), whilst immortalized human keratinocyte HaCaT cell lines were bought from Cell Lines Service (CLS) GmbH (Eppelheim, Germany).
LNCaP, PNT2 and N87 cells were grown in RPMI-1640 medium; PC3 cells were cultured in Ham’s F12; DU145, Caco-2 and BJ cells were maintained in EMEM. SCC-15 cell line was grown in DMEM:F12, whilst B16F10, HaCaT and HT-29 cell lines were maintained in DMEM. All conditioned media were supplemented with 10% FBS for all cell lines, except for Caco-2 cells which were grown in EMEM supplemented with 20% FBS. The cells were cultured at 37 °C in a humidified atmosphere with 5% CO2.
(§2) Neutral red uptake (NRU) assay was performed as described by Repetto et al.. Briefly, cells were seeded in 96-well plates (3 × 10^3 cells/well) and grown overnight. The cells were then treated with increasing concentrations of F. penninervis crude extract (12.5–200 µg/mL) and isolated compounds (3.125–50 µg/mL) or the positive control 5-FU (1 µg/mL). The control cells were grown in appropriate culture medium containing equal volume of the used solvent (DMSO). After 48 h, the cells were incubated for 3 h with neutral red solution (33 µg/mL) in conditioned medium containing 1% FBS. […] The absorbance of the released neutral red was measured at λ = 540 nm using FilterMax F5 microplate reader and corrected by the absorbance at λ = 620 nm. The mean measured value for the lysate from control cells was set as 100% cellular viability and used to calculate the percentage of viable cells following extracts treatment.
(§3) All experiments were performed in triplicate and the results were expressed as mean ± standard error of mean (SEM). […]

Series [2] deals with B16F10 cells. The note with it: cited from earlier work.
In series [3] the test system is B16F10 cells. Also noted: method as in doi:10.1186/s13765-019-0468-7. To be noted: 3 and 6 μM; cited from earlier work.
Series [4] relates to αMSH-stimulated murine melanoma B16F10 cells. The series is described as follows: Melanin release in conditioned medium of αMSH-stimulated B16F10 cells. To be noted: αMSH 10 nM, 72 h; for melanin release in the medium: 10 μg/mL. It is filed as cell-based. The procedure: (§4) Figure 5 Influence of Ferula penninervis root extract and isolated sesquiterpene lactones on melanin release in conditioned medium (A), melanin content in cell lysate (B) and cell viability (C) in α-MSH-stimulated murine melanoma B16F10 cells. B16F10 cells were seeded in 6-well plates (0.5 × 10^5/well) and treated with extract (100 μg/mL) or sesquiterpene lactones (10 μg/mL); melanin production was stimulated with α-MSH (10 nM). Kojic acid (100 μg/mL) was used as positive control. After 72 h, the melanin release/content and cell viability were assessed. Data are expressed as the percentage of melanin release/content in comparison with α-MSH stimulated control cells (α-MSH+) (A,B) or as percentage change in viability in comparison to the vehicle (DMSO) treated control group (C). Each point represents the mean ± S.E.M. of three independent experiments performed in triplicates; # p < 0.001 vs. non-stimulated control cells (αMSH-); ** p < 0.01; *** p < 0.001 vs. αMSH+ cells.
B16F10 cells were plated in 6-well plates (0.5 × 10^5 cells/well) and grown overnight. The cells were treated with F. penninervis crude extract (100 µg/mL), isolated compounds (10 µg/mL) or the positive control kojic acid (100 μg/mL). Melanin production was stimulated with α-MSH (10 nM). Following 72 h, the conditioned medium and cell pellets were collected. Cell pellets were dissolved in 1 N NaOH and incubated for 2 h at 80 °C. Conditioned media and cell lysates were then transferred to a 96-well plate and the absorbance was measured at λ = 405 nm using FilterMax F5 microplate reader. The content of protein in cell lysates was establish using Bradford assay. The melanin released in the conditioned medium and the melanin content in cell lysates (μg melanin/mg protein) were calculated with the help synthetic melanin calibration curves. The melanin release/content was expressed as the percentage of melanin release/content in comparison with α-MSH stimulated control cells without the tested samples.

The test system of series [5] is erythroleukemia K562 cells. Also noted: method as in PMID 24320993. The note with it: cited from earlier work.
Another series deals with MCF-7 cells. Also noted: method as in PMID 24320993. To be noted: cited from earlier work.
Series [6] relates to αMSH-stimulated murine melanoma B16F10 cells. The series is described as follows: Melanin content in cell lysate of αMSH-stimulated B16F10 cells. In kind it is cell-based. To be noted: 100 μg/mL, αMSH 10 nM, 72 h. How it is done:
as §4, with “Each point represents the mean ± S.E.M. of three independent experiments performed in triplicates; # p < 0.001 vs. non-stimulated control cells (αMSH-); ** p < 0.01; *** p < 0.001 vs. αMSH+ cells.” left out
B16F10 cells were plated in 6-well plates (0.5 × 10^5 cells/well) and grown overnight. […] Conditioned media and cell lysates were then transferred to a 96-well plate and the absorbance was measured at λ = 405 nm using FilterMax F5 microplate reader. […] The melanin released in the conditioned medium and the melanin content in cell lysates (μg melanin/mg protein) were calculated with the help synthetic melanin calibration curves. The melanin release/content was expressed as the percentage of melanin release/content in comparison with α-MSH stimulated control cells without the tested samples.

The subject of series [7] is prostate epithelial PNT2 cells. The series is described as follows: Neutral red uptake cell viability assay, PNT2 cells. To be noted: 48 h. In kind it is cell-based. How it is done:
as §1, with “triplicates. […]” for “triplicates.”
Neutral red uptake (NRU) assay was performed as described by Repetto et al.. […] The absorbance of the released neutral red was measured at λ = 540 nm using FilterMax F5 microplate reader and corrected by the absorbance at λ = 620 nm. The mean measured value for the lysate from control cells was set as 100% cellular viability and used to calculate the percentage of viable cells following extracts treatment.
as §3

In series [8] the test system is αMSH-stimulated murine melanoma B16F10 cells. The series is described as follows: Neutral red uptake viability at 72 h in αMSH-stimulated B16F10 cells. It is filed as cell-based. To be noted: extract 100 μg/mL, lactones 10 μg/mL, kojic acid 100 μg/mL, vs αMSH- cells. How it is done: To evaluate the effects of F. penninervis methanolic root extract and its isolated guaiane-type sesquiterpene lactones on the melanin synthesis and release, the melanin assay was carried out. For this purpose, the production of melanin in murine melanoma B16F10 cells was stimulated with αMSH. […] Furthermore, to exclude the possibility that the observed inhibitory effects on the melanin production might have resulted through a reduced number of viable cells, neutral red uptake assay at 72 h was performed (Figure 5C and Figure S17). […] To our knowledge, there are no previous studies reporting the melanin production inhibitory potential of Ferula genus or isolated constituents. Nevertheless, the anti-melanogenic effects of different phytochemicals were repeatedly evidenced in various cell-based assays.
as §4, §2

Converted amounts (≈) assume the structure as drawn.

Take `O=c1[nH]cc(F)c(=O)[nH]1` [5-FU, 5-Fluorouracil, reference compound]: in series [1] (positive control at 5 μg/mL), the viability (as a rule, a read-out of living cells in per cent, often relative to untreated cells) at 5 µg/mL was determined as 50.6 ± 3.28%.

Regarding `COc1cc(/C=C/C(=O)N2CCC=CC2=O)cc(OC)c1OC` [Piperlongumine], the total melanin production entry in the series on B16F10 cells [2] (3 and 6 μM) is on record as “significantly reduced the total melanin production”. For the same molecule, the “effect on cell growth” value in the series with B16F10 cells [3] is given as “no inhibitory effects on the cell growth”.

Regarding `CC=C(C)C(=O)OC1CC(C)=C2C(=O)C=C(C)C2C2OC(=O)C(C)(OC(=O)C(C)C)C12` (stereo not drawn) [daucoguaianolactone F, daucoguainolactone F], the “melanin release in the medium” value in [4] was “inactive”.

For the molecule `C=C1C(=O)O[C@@H]2[C@H]1CC[C@]1(C)[C@H](OC(=O)/C(C)=C/C)C=CC(=C)[C@@H]21` [dehydrooopodin], the IC50 (in general, the midpoint of a concentration-inhibition curve) in series [5] is 5 µM; with MCF-7 cells it was 15 µM.

On to `CC1=CC(=O)C2=C(C)C[C@H](OC(=O)C(C)C)[C@@H]3[C@@H](OC(=O)[C@@]3(C)OC(=O)C(C)C)[C@H]12` [ferupennin Q, 2-oxo-8α,11α-diisobutyroyloxy-5βH,6αH,7αH-gua-1(10),3-diene-6,12-olide], for which the “melanin release in the medium” value in series [4] is “inactive”.

Take `O=c1cc(CO)occ1O` [kojic acid, reference compound]: the “melanin release in the conditioned medium” value in [4] (100 μg/mL) is on record as 35.88 ± 3.45 % of αMSH+ control cells. For the same molecule, in series [6], the “melanin content in the cell lysate” value is “but not the melanin content”.

In [1], `C/C=C(/C)C(=O)O[C@H]1CC(C)=C2C(=O)C=C(C)[C@H]2[C@@H]2OC(=O)[C@@](C)(OC(C)=O)[C@@H]21` [laferin] returned a viability at 50 µg/mL of 14.4 ± 1.69% and an IC50 of 23.3 µg/mL (≈ 57.8 µM). Also, the cell survival in series [7] (50 µg/mL (highest tested concentration)) is recorded as 53.85 ± 1.71%. Moreover, in series [8], the “viability of B16F10 cells” value is reported as “without influencing the viability of B16F10 cells”.

Turning to `C=C(C)C(=O)O[C@H]1CC(C)=C2C(=O)C=C(C)[C@H]2[C@@H]2OC(=O)[C@@](C)(OC(=O)C(C)C)[C@@H]21` [oferin], in [8], the “viability of B16F10 cells” value is “without influencing the viability of B16F10 cells”.

In series [1], `C=C(C)C(=O)O[C@H]1CC(C)=C2C(=O)C=C(C)[C@H]2[C@@H]2OC(=O)[C@@](C)(OC(C)=O)[C@@H]21` [olgin] displayed a viability at 50 µg/mL of 43.1 ± 3.52% and a 50% inhibitory concentration (IC50) of 31 µg/mL (≈ 79.9 µM). The “effect on viability of PNT2 control cells” value in series [7] (3.125–50 μg/mL) was “did not significantly affect the viability”. Also, the “melanin release in the medium” value in series [4] was 40.67–65.48 % of αMSH+ control cells. Also, in series [8], the “viability of B16F10 cells” value is “without influencing the viability of B16F10 cells”.

`C=C(C)C(=O)O[C@H]1CC(C)=C2C(=O)C=C(C)[C@H]2[C@@H]2OC(=O)[C@@](C)(OC(=O)C(=C)C)[C@@H]21` [olgoferin]: the “viability of B16F10 cells” value in series [8] is given as “without influencing the viability of B16F10 cells”.

For `C[C@@H]1O[C@@H](O[C@@H]2[C@@H](O)[C@H](O)[C@@H](CO)O[C@H]2c2c(O)cc(O)c3c(=O)cc(-c4ccc(O)cc4)oc23)[C@H](O)[C@H](O)[C@H]1O` [vitexin-2ʺ-O-rhamnoside], the “decrease of intracellular melanin production compared to untreated cells” value with B16F10 cells [2] (5 μM) is on record as “threefold”.
